Data as given in US9174966B2, “Crystalline forms of 6-(1H-imidazol-1-yl)-2-phenylquinazoline” (ROTTAPHARM S.P.A., priority 2009, dated 2015).
In brackets after ≈: the same amount, converted by molar mass. Counter-ions that a name gives are not always drawn. Like-named read-outs stand apart in the source and are kept apart here.

Columns and labels:
[1] = BCS (Biopharmaceutical Classification System) classification; assay type: physicochemical; conditions: high permeability, low solubility
Source text: To take these two factors into account, a classification of drug products was introduced, known as BCS (Biopharmaceutical Classification System) (G L Amidon et al., Pharm. Res. 1995, 12: 413-419). Since it is endowed with good permeability and low solubility, 6-(1H-imidazol-1-yl)-2-phenylquinazoline falls into class II (high permeability, low solubility) of the BCS system. For the drug products of this class, the solubility is fundamental in determining their absorption. The preparation of pharmaceutically acceptable salts generally represents a means for increasing the solubility of sparingly soluble products, and, in the case of products endowed with good permeability, is a suitable means for increasing their bioavailability.

[2] = Pharmacokinetics in rats, oral versus intravenous administration; assay type: in vivo; conditions: for F (bioavailability): OS 10 mg/Kg compared with IV 5 mg/kg; for half-life: read-out: T½
Procedure: The samples are analysed by HPLC-MS to determine the content of 6-(1H-imidazol-1-yl)-2-phenylquinazoline, using diphenylhydramine hydrochloride as internal standard. The pharmacokinetic parameters measured are summarized hereinbelow: it is noted that, despite the fact that the polymorph under consideration is of low solubility, the bioavailability (F %) is entirely acceptable.
The pharmacokinetic parameters measured are summarized hereinbelow: it is noted that the salt under consideration has optimum bioavailability (F %). […]

[3] = Stability to mechanical stress (milling, XRPD); assay type: physicochemical; conditions: Retsch MM 200 mill, 50 Hz, 5 min.
Procedure: 6-(1H-Imidazol-1-yl)-2-phenylquinazoline, polymorph A, was subjected to milling by means of a Retsch MM 200 mill, at 50 Hz for 5 min., and the product thus obtained was analysed by XRPD.
6-(1H-Imidazol-1-yl)-2-phenylquinazoline succinate form A, was subjected to milling by means of a Retsch MM 200 mill, at 50 Hz for 5 min., and the product thus obtained was subjected to XRPD analysis.
6-(1H-Imidazol-1-yl)-2-phenylquinazoline L-tartrate dihydrate, form A, was subjected to milling by means of a Retsch MM 200 mill, at 50 Hz for 5 min., and the product thus obtained was subjected to XRPD analysis.
6-(1H-Imidazol-1-yl)-2-phenylquinazoline maleate, form A, was subjected to milling by means of a Retsch MM 200 mill, at 50 Hz for 5 min., and the product thus obtained was subjected to XRPD analysis.

physchem = conditions: 37 °C, pH 2, aqueous buffer, thermodynamic from solid
Procedure: A sample of 6-(1H-imidazol-1-yl)-2-phenylquinazoline, polymorph A (150 mg), is stirred in a phosphate buffer solution at pH 7.4 (8 mL), at 500 rpm, so as to obtain a suspension, for 24 hours at 37° C. The suspension is then filtered and the concentration of the dissolved product is measured by reading the UV absorbance at 260 nm. […] A sample of 6-(1H-imidazol-1-yl)-2-phenylquinazoline, polymorph A (250 mg), is stirred in a phosphate buffer solution at pH 2 (2 mL), at 500 rpm, so as to obtain a suspension, for 24 hours at 37° C. The suspension is then filtered and the concentration of the dissolved product is measured by reading the UV absorbance at 260 nm.
A sample of 6-(1H-imidazol-1-yl)-2-phenylquinazoline, form B, (50 mg), is stirred in a phosphate buffer solution at pH 7.4 (2 mL), at 500 rpm, so as to obtain a suspension, for 24 hours at 37° C. The suspension is then filtered and the concentration of the dissolved product is measured by reading the UV absorbance at 260 nm.
A sample of 6-(1H-imidazol-1-yl)-2-phenylquinazoline, form C (30 mg), is stirred in a phosphate buffer solution at pH 7.4 (2 mL), at 500 rpm, so as to obtain a suspension, for 24 hours at 37° C. The suspension is then filtered and the concentration of the dissolved product is measured by reading the UV absorbance at 260 nm. […]

[4] = Thermal stability of the crystalline form (XRPD)
[5] = Solubility in aqueous solution of NaCl 0.9% (UV absorbance at 260 nm); assay type: physicochemical; conditions: aqueous solution of NaCl 0.9%, 37 °C, saline or isotonic, thermodynamic from solid, aqueous NaCl 0.9%, stirred 500 rpm, 24 hours at 37° C.
Procedure: The solubility is 0.6 mg/mL. […]
The sample of 6-(1H-imidazol-1-yl)-2-phenylquinazoline phosphate, form A, is stirred in an aqueous solution of NaCl 0.9%, at 500 rpm, so as to obtain a suspension (50 mg in 2 mL), for 24 hours at 37° C.
(§1) The sample of 6-(1H-imidazol-1-yl)-2-phenylquinazoline phosphate, form A, is stirred in an aqueous solution of NaCl 0.9%, at 500 rpm, so as to obtain a suspension (70 mg in 2 mL), for 24 hours at 37° C. […] The dissolution rate is measured by adding 2 mg of product to 40 mL of water at 37° C., stirring at 500 rpm, and measuring the absorbance at 260 nm every 0.05 min; the dissolution rate is found to be 1.9×10^−4 gr/min.

[6] = Dissolution rate in water at 37° C.; assay type: physicochemical; conditions: 2 mg of product in 40 mL of water at 37° C., 500 rpm, absorbance at 260 nm
Procedure: as §1

[7] = Stability to moisture, DVS analysis (Differential Vapour Sorption); assay type: physicochemical; conditions: 25° C.
Procedure: The sample placed on a microbalance is subjected, in a chamber of controlled humidity, at 25° C., to a cycle of hydration (increasing humidity, red line) and of dehydration (decreasing humidity, blue line).
The sample of 6-(1H-imidazol-1-yl)-2-phenylquinazoline succinate form A was subjected to DVS analysis (as described in Example 32).
The sample of 6-(1H-imidazol-1-yl)-2-phenylquinazoline L-tartrate dihydrate, form A, was subjected to DVS analysis.
The sample of 6-(1H-imidazol-1-yl)-2-phenylquinazoline maleate, form A, was subjected to DVS analysis.

[8] = Hygroscopicity noted for the isolated crystalline product; assay type: physicochemical; conditions: as noted in the preparation example
[9] = IV, 5 mg/kg, dihydrochloride monohydrate
[10] = OS (oral), 10 mg/Kg, dihydrochloride monohydrate

## c1ccc(-c2ncc3cc(-n4ccnc4)ccc3n2)cc1 [6-(1H-imidazol-1-yl)-2-phenylquinazoline]
[1]
  BCS class: class II

## c1ccc(-c2ncc3cc(-n4ccnc4)ccc3n2)cc1 [polymorph A, 6-(1H-imidazol-1-yl)-2-phenylquinazoline]
[2]; IV, 5 mg/kg
  V: 1.28 L/kg
[2]
  F (bioavailability): 50.3%
[2]; OS (oral), 10 mg/Kg
  CL: 22 mL/min/kg
  V: 1.60 L/kg
[2]; rat, blood, iv, 5 mg/kg
  clearance: 21 mL/min/kg
[2]; rat, blood, iv, 5 mg/kg, IV, 5 mg/kg
  half-life: 42.1 min
[2]; rat, blood, po, 10 mg/kg, OS (oral), 10 mg/Kg, read-out: Tmax (converted)
  Tmax: 100 min
[2]; rat, blood, po, 10 mg/kg, OS (oral), 10 mg/Kg
  half-life: 45.4 min
[3]
  stability to milling: without any contamination with other crystalline forms, and no appreciable formation of amorphous material
physchem
  solubility at 24 h: 1.8 mg/mL (≈ 6.61 mM)
[4]; 40° C., RH 85%, 5 days (at least 5 days for polymorph A), XRPD
  thermal stability of crystalline form: stable
[4]; 90° C., 12 hours (or at least 12 hours), XRPD
  thermal stability of crystalline form: stable

## c1ccc(-c2ncc3cc(-n4ccnc4)ccc3n2)cc1 [dihydrochloride monohydrate form A, 6-(1H-imidazol-1-yl)-2-phenylquinazoline dihydrochloride monohydrate]
[5]
  solubility at 24 h: 138 mg/mL
[6]
  dissolution rate: 2.17×10^−3 gr/min
[2]; [9]
  CL: 24 mL/min/kg
  T½: 46.6 min
  V: 1.26 L/kg
[2]; dihydrochloride monohydrate
  F (bioavailability): 90.0%
[2]; [10]
  CL: 18 mL/min/kg
  Tmax: 80 min
  T½: 59.9 min
  V: 2.96 L/kg
[3]; dihydrochloride monohydrate
  stability to milling: No increase in the amount of amorphous product present relative to the reference example, as well as no foreign signals attributable to other forms
[7]; hydration/dehydration cycle
  hygroscopicity (DVS): in the range 30-80% relative humidity (RH), the product is not particularly hygroscopic
[7]; range 30-80% relative humidity
  water content (DVS): about 5%
[8]
  hygroscopicity of the isolated product: non-hygroscopic
[4]; 40° C., RH 85%, 7 days, XRPD, dihydrochloride monohydrate
  thermal stability of crystalline form: stable
[4]; 90° C., VT-XRPD
  time after which complete conversion into the monohydrochloride is noted: 48 h
  time after which formation of the monohydrochloride is noted: 36 h
[4]; 90° C., several hours
  thermal stability of crystalline form: stable
